# Measured values: patent publication US5700801A, “Piperazine derivatives, pharmaceutical compositions containing these compounds, their use and processes for preparing them” (Karl Thomae, GmbH, priority 1994, dated 1997)
# Where a name gives a salt, the structure may show the parent alone.
# Columns and labels:
# human thrombocytes = assay: Inhibition of binding of ^3 H-BIBU 52 to human thrombocytes (table: Fibrinogen binding test); conditions: ^3 H-BIBU 52 (5 nM), human thrombocytes in plasma, ambient temperature, 20 minutes
# Procedure: 1. Inhibition of binding of ^3 H-BIBU 52 to human thrombocytes:
# A suspension of human thrombocytes in plasma is incubated with ^3 H-BIBU 52 [=(3S,5S)-5-[(4'-amidino-4-biphenylyl)oxymethyl]-3-[(carboxyl)methyl]-2-pyrrolidinone[3-^3 H-4-biphenylyl]] (see DE-A-4,214,245), which replaces the ^125 I fibrinogen ligand known from the literature, and various concentrations of the substance to be tested. The free and bound ligand is separated by centrifuging and quantified by scintillation counting. The inhibition of ^3 H-BIBU 52 binding by the test substance is determined from the measurements obtained.
# In order to do this, donor blood is taken from an anticubital vein and anticoagulated with trisodium citrate (final concentration 13 mM). The blood is centrifuged for 10 minutes at 170×g and the supernatant platelet-rich plasma (PRP) is removed. The remaining blood is vigorously centrifuged once more in order to obtain plasma. The PRP is diluted 1:10 with autologous plasma. 750 μl are incubated with 50 μl of physiological saline solution, 100 μl of test substance solution, 50 μl of ^14 C-sucrose (3,700 Bq) and 50 μl of ^3 H-BIBU 52 (final concentration: 5 nM) at ambient temperature for 20 minutes. In order to measure the non-specific binding, 5 μl of BIBU 52 (final concentration: 30 μM) are used instead of the test substance. The samples are centrifuged for 20 seconds at 10,000×g and the supernatant is poured off. 100 μl thereof are counted in order to determine the amount of free ligand. The pellet is dissolved in 500 μl of 0.2N NaOH, 450 μl are mixed with 2 ml of scintillator and 25 μl of 5N HCl and measured. The residual plasma remaining in the pellet is determined from the ^14 C-content and the bound ligand is determined from the ^3 H-measurement. After the non-specific binding has been deducted, the pellet activity is plotted against the concentration of the test substance and the concentration for a 50% inhibition of binding is determined.
# [1] = system: thrombocyte aggregation in platelet-rich plasma taken from healthy volunteers; assay: Antithrombotic activity: inhibition of collagen-induced platelet aggregation (Born and Cross) in platelet-rich plasma; format: cell-based; conditions: Homo sapiens, 10 minutes preincubation at 37° C.
# Procedure: 2. Antithrombotic activity
# The thrombocyte aggregation is measured using the method of Born and Cross (J. Physiol. 170: 397 (1964)) in platelet-rich plasma taken from healthy volunteers. To inhibit coagulation, the blood is mixed with 3.14% sodium citrate in a volume ratio of 1:10.
# Collagen-induced aggregation
# The pattern of the decrease in optical density of the platelet suspension is photometrically measured and recorded after the addition of the aggregation-triggering substance. The rate of aggregation is determined from the angle of inclination of the density curve. The point on the curve where there is maximum light transmittance is used to calculate the optical density.
# The concentration of collagen used is as small as possible but sufficient to produce an irreversible reaction curve. Standard commercial collagen produced by Hormonchemie of Munich is used.
# Before the addition of the collagen the plasma is incubated for 10 minutes with the substance at 37° C.
# From the measurements obtained the EC50 is determined, which indicates the concentration giving a 50% change in the optical density in terms of the inhibition of aggregation.
IC50 (human thrombocytes),Structure (SMILES),EC50 [1]
0.23 nM,"O=C(CC(=O)N1CCN(c2ccncc2)CC1)N[C@H]1CC[C@H](C(=O)O)CC1 [5(7), [4-trans-[4-(4-Pyridyl)-piperazin-1-yl]malonylamino]cyclohexylcarboxylic a cid hydrochloride]",0.25 nM
0.41 nM,"O=C(O)CCN1CCC(NC(=O)N2CCN(c3ccncc3)CC2)CC1 [5(8), 3-[4-[4-(4-pyridyl)-piperazin-1-yl]carbonylamino]piperidinopropionic acid dihydrochloride]",0.6 nM
0.21 nM,"O=C(CCN1CCN(c2ccncc2)CC1)N[C@H]1CC[C@H](C(=O)O)CC1 [Example 5, [4-trans-[3-[4-(4-Pyridyl)-piperazin-1-yl]propionyl]amino]-cyclohexane-carboxylic acid dihydrochloride]",0.26 nM

# The remaining lines, values behind:
Structure (SMILES),IC50 (human thrombocytes),EC50 [1]
"O=C(O)CC[C@H]1CC[C@H](NC(=O)N2CCN(c3ccncc3)CC2)CC1 [5(6), 3-[4-trans-[4-(4-Pyridyl)-piperazin-1-yl]carbonylamino]cyclohexylpropionicacid hydrochloride]",0.25 nM,0.16 nM
"O=C(O)CN1CCC(NC(=O)N2CCN(c3ccncc3)CC2)CC1 [5(9), [4-[4-(4-Pyridyl)-piperazin-1-yl]carbonylamino]piperidino-acetic acid]",0.43 nM,4.4 nM
"COC(=O)[C@H]1CC[C@H](NC(=O)CCN2CCN(c3ccncc3)CC2)CC1 [Example 1, Methyl[4-trans-[3-[4-(4-pyridyl)-piperazin-1-yl]propionyl]-amino]cyclohexane carboxylate]",> 100 nM,3.32 nM
